The test has as its target T1, RORc ligand binding domain (Homo sapiens, UniProt P51449).
T1 sequence (P51449 269-508 limits assumed): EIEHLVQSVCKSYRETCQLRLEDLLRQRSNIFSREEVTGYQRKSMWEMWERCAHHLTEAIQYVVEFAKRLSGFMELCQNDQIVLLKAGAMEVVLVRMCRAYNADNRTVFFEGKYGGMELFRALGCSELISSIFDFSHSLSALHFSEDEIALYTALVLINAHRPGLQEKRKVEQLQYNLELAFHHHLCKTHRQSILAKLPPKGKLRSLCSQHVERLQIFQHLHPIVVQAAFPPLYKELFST
The test is described as follows: In Vitro RORc Ligand Binding Assay. The settings on record: RORc IC50, radioligand 25-[3H]hydroxycholesterol 6 nM; 0.6 ug/mL RORc receptor; 3 h at 25° C.

Experimental findings from US10487068B2, “Pyridazine derivatives as RORc modulators” (Genentech, Inc., priority 2015, dated 2019) are described below.

A word on the IC50: it is the concentration that inhibits the measured activity by half.

Molecule `C[C@H](O)Cc1n[nH]c(-c2cncc([C@@]34CC[C@@H](c5cc(-c6c(F)cccc6F)nnc53)C4(C)C)n2)n1` [Example 297, (S)-1-(5-(6-((5R,8S)-3-(2,6-difluorophenyl)-9,9-dimethyl-5,6,7,8-tetrahydro-5,8-methanocinnolin-8-yl)pyrazin-2-yl)-1H-1,2,4-triazol-3-yl)propan-2-ol] registered an IC50 of 19.9 nM. In other words, the double-digit nanomolar range.

Take `Cc1n[nH]cc1-c1nccc([C@@]23CC[C@@H](c4cc(-c5c(F)cccc5F)nnc42)C3(C)C)n1` [Example 298]: the IC50 was 5.7 nM.

Consider `CC1(C)[C@H]2CC[C@]1(c1ccnc(N3CC(C(N)=O)C3)n1)c1nnc(-c3c(F)cccc3F)cc12` [Example 299], for which the IC50 turned out to be 24.1 nM.

Regarding `CC1(C)[C@H]2CC[C@]1(c1ccnc(-n3ccc(CC(N)=O)n3)n1)c1nnc(-c3c(F)cccc3F)cc12` [Example 300], the IC50 worked out at 12.2 nM.

Regarding `CC(C)(O)c1nc(-c2cncc([C@@]34CC[C@@H](c5cc(-c6c(F)cccc6F)nnc53)C4(C)C)n2)c[nH]1` [Example 301, 2-(4-(6-((5R,8S)-3-(2,6-difluorophenyl)-9,9-dimethyl-5,6,7,8-tetrahydro-5,8-methanocinnolin-8-yl)pyrazin-2-yl)-1H-imidazol-2-yl)propan-2-ol], the IC50 came out at 13.6 nM.

Molecule `CC1(C)[C@H]2CC[C@]1(c1nccc(-c3ccn[nH]3)n1)c1nnc(-c3c(F)cccc3F)cc12` [Example 302, (5R,8R)-8-(4-(1H-pyrazol-5-yl)pyrimidin-2-yl)-3-(2,6-difluorophenyl)-9,9-dimethyl-5,6,7,8-tetrahydro-5,8-methanocinnoline] gave an IC50 of 9.9 nM.

Consider `CC1(C)[C@H]2CC[C@]1(c1ccnc(-n3ccc(=O)[nH]3)n1)c1nnc(-c3c(F)cccc3F)cc12` [Example 303], for which the IC50 stood at 15 nM.

The molecule `CC(C)(O)c1cc(-c2cccc([C@@]34CC[C@@H](c5cc(-c6c(F)cccc6F)nnc53)C4(C)C)n2)[nH]n1` [Example 304, 2-(5-(6-((5R,8S)-3-(2,6-difluorophenyl)-9,9-dimethyl-5,6,7,8-tetrahydro-5,8-methanocinnolin-8-yl)pyridin-2-yl)-1H-pyrazol-3-yl)propan-2-ol] yielded an IC50 of 9.4 nM.

`CC1(C)[C@H]2CC[C@]1(c1ccnc(-n3cnc(N)n3)n1)c1nnc(-c3c(F)cccc3F)cc12` [Example 305] displayed an IC50 of 19.6 nM.

`CC1(C)[C@H]2CC[C@]1(c1cncc(-c3nc(CCO)n[nH]3)n1)c1nnc(-c3c(F)cccc3F)cc12` [Example 306, 2-(5-(6-((5R,8S)-3-(2,6-difluorophenyl)-9,9-dimethyl-5,6,7,8-tetrahydro-5,8-methanocinnolin-8-yl)pyrazin-2-yl)-1H-1,2,4-triazol-3-yl)ethanol] registered an IC50 of 16.2 nM.

On to `CC(C)(O)C1CN(c2nccc([C@@]34CC[C@@H](c5cc(-c6c(F)cccc6F)nnc53)C4(C)C)n2)C1` [Example 307], for which the IC50 is 13.5 nM.

`CC1(C)[C@H]2CC[C@]1(c1cncc(-c3nc([C@@H](O)C(F)(F)F)n[nH]3)n1)c1nnc(-c3c(F)cccc3F)cc12` [Example 308, (R)-1-(5-(6-((5R,8S)-3-(2,6-difluorophenyl)-9,9-dimethyl-5,6,7,8-tetrahydro-5,8-methanocinnolin-8-yl)pyrazin-2-yl)-1H-1,2,4-triazol-3-yl)-2,2,2-trifluoroethanol] had an IC50 of 104 nM.

`CC1(C)[C@H]2CC[C@]1(c1cncc(-c3nc([C@H](O)C(F)(F)F)n[nH]3)n1)c1nnc(-c3c(F)cccc3F)cc12` [Example 309, (S)-1-(5-(6-((5R,8S)-3-(2,6-difluorophenyl)-9,9-dimethyl-5,6,7,8-tetrahydro-5,8-methanocinnolin-8-yl)pyrazin-2-yl)-1H-1,2,4-triazol-3-yl)-2,2,2-trifluoroethanol] registered a half-inhibitory concentration (IC50) of 88.4 nM.

On to `CC1(C)[C@H]2CC[C@]1(c1cccc(-c3nc(CCO)n[nH]3)n1)c1nnc(-c3c(F)cccc3F)cc12` [Example 310, 2-(5-(6-((5R,8S)-3-(2,6-difluorophenyl)-9,9-dimethyl-5,6,7,8-tetrahydro-5,8-methanocinnolin-8-yl)pyridin-2-yl)-1H-1,2,4-triazol-3-yl)ethanol], for which the IC50 stood at 73.5 nM. The IC50 values of the last two molecules are within 1.5-fold of each other.

`C[C@@H](O)Cc1n[nH]c(-c2cccc([C@@]34CC[C@@H](c5cc(-c6c(F)cccc6F)nnc53)C4(C)C)n2)n1` [Example 311, (R)-1-(5-(6-((5R,8S)-3-(2,6-difluorophenyl)-9,9-dimethyl-5,6,7,8-tetrahydro-5,8-methanocinnolin-8-yl)pyridin-2-yl)-1H-1,2,4-triazol-3-yl)propan-2-ol]: the IC50 was 71.1 nM.

`C[C@H](O)Cc1n[nH]c(-c2cccc([C@@]34CC[C@@H](c5cc(-c6c(F)cccc6F)nnc53)C4(C)C)n2)n1` [Example 312, (S)-1-(5-(6-((5R,8S)-3-(2,6-difluorophenyl)-9,9-dimethyl-5,6,7,8-tetrahydro-5,8-methanocinnolin-8-yl)pyridin-2-yl)-1H-1,2,4-triazol-3-yl)propan-2-ol] showed an IC50 of 62.7 nM.

`CC1(C)[C@H]2CC[C@]1(c1cccc(-c3cc(CO)n[nH]3)n1)c1nnc(-c3c(F)cccc3F)cc12` [Example 313, (5-(6-((5R,8S)-3-(2,6-difluorophenyl)-9,9-dimethyl-5,6,7,8-tetrahydro-5,8-methanocinnolin-8-yl)pyridin-2-yl)-1H-pyrazol-3-yl)methanol]: the IC50 came out at 1.6 nM.

`CC(C)(O)c1noc(-c2cccc([C@@]34CC[C@@H](c5cc(-c6c(F)cccc6F)nnc53)C4(C)C)n2)n1` [Example 314, 2-(5-(6-((5R,8S)-3-(2,6-difluorophenyl)-9,9-dimethyl-5,6,7,8-tetrahydro-5,8-methanocinnolin-8-yl)pyridin-2-yl)-1,2,4-oxadiazol-3-yl)propan-2-ol] had an IC50 of 1.5 nM.

Molecule `CC1(C)[C@H]2CC[C@]1(c1cncc(OCC(N)=O)n1)c1nnc(-c3c(F)cccc3F)cc12` [Example 315, 2-((6-((5R,8S)-3-(2,6-difluorophenyl)-9,9-dimethyl-5,6,7,8-tetrahydro-5,8-methanocinnolin-8-yl)pyrazin-2-yl)oxy)acetamide] returned an IC50 of 94.1 nM.

Take `CC(C)(O)COc1cncc([C@@]23CC[C@@H](c4cc(-c5c(F)cccc5F)nnc42)C3(C)C)n1` [Example 316, 1-((6-((5R,8S)-3-(2,6-difluorophenyl)-9,9-dimethyl-5,6,7,8-tetrahydro-5,8-methanocinnolin-8-yl)pyrazin-2-yl)oxy)-2-methylpropan-2-ol]: the IC50 came out at 36.4 nM.

The molecule `CC1(C)[C@H]2CC[C@]1(c1cccc(-c3nc(C4(O)CC4)n[nH]3)n1)c1nnc(-c3c(F)cccc3F)cc12` [Example 317, 1-(5-(6-((5R,8S)-3-(2,6-difluorophenyl)-9,9-dimethyl-5,6,7,8-tetrahydro-5,8-methanocinnolin-8-yl)pyridin-2-yl)-1H-1,2,4-triazol-3-yl)cyclopropanol] came in with an IC50 of 9.2 nM. Compared with the last molecule, the IC50 is about 4-fold lower.

The molecule `CC[C@@H](O)c1n[nH]c(-c2cccc([C@@]34CC[C@@H](c5cc(-c6c(F)cccc6F)nnc53)C4(C)C)n2)n1` [Example 318, (R)-1-(5-(6-((5R,8S)-3-(2,6-difluorophenyl)-9,9-dimethyl-5,6,7,8-tetrahydro-5,8-methanocinnolin-8-yl)pyridin-2-yl)-1H-1,2,4-triazol-3-yl)propan-1-ol] showed an IC50 of 10.8 nM.

For the molecule `CC1(C)[C@H]2CC[C@]1(c1cccc(-c3nc(C4(O)COC4)n[nH]3)n1)c1nnc(-c3c(F)cccc3F)cc12` [Example 320, 3-(5-(6-((5R,8S)-3-(2,6-difluorophenyl)-9,9-dimethyl-5,6,7,8-tetrahydro-5,8-methanocinnolin-8-yl)pyridin-2-yl)-1H-1,2,4-triazol-3-yl)oxetan-3-ol], the IC50 was 9 nM.

For the molecule `CC1(C)[C@H]2CC[C@]1(c1cccc(-c3nc(CS(C)(=O)=O)n[nH]3)n1)c1nnc(-c3c(F)cccc3F)cc12` [Example 321], the IC50 was determined as 12.7 nM.

`CC[C@H](O)c1n[nH]c(-c2cccc([C@@]34CC[C@@H](c5cc(-c6c(F)cccc6F)nnc53)C4(C)C)n2)n1` [Example 322, (S)-1-(5-(6-((5R,8S)-3-(2,6-difluorophenyl)-9,9-dimethyl-5,6,7,8-tetrahydro-5,8-methanocinnolin-8-yl)pyridin-2-yl)-1H-1,2,4-triazol-3-yl)propan-1-ol] registered an IC50 of 11.5 nM.

`CC1(C)[C@H]2CC[C@]1(c1ccnc(-n3cnc(CC(N)=O)n3)n1)c1nnc(-c3c(F)cccc3F)cc12` [Example 323] yielded an IC50 of 11.2 nM. This IC50 and that of the molecule before are within 1.5-fold of each other.

With `CC(C)(O)Cc1ccn(-c2nccc([C@@]34CC[C@@H](c5cc(-c6c(F)cccc6F)nnc53)C4(C)C)n2)n1` [Example 324], the IC50 is 9.5 nM.

Take `CC1(C)[C@H]2CC[C@]1(c1cncc(-c3nc(C(N)=O)co3)n1)c1nnc(-c3c(F)cccc3F)cc12` [Example 325, 2-(6-((5R,8S)-3-(2,6-difluorophenyl)-9,9-dimethyl-5,6,7,8-tetrahydro-5,8-methanocinnolin-8-yl)pyrazin-2-yl)oxazole-4-carboxamide]: the IC50 was found to be 6.7 nM.

Consider `CC1(C)[C@H]2CC[C@]1(c1cncc(-c3nc(C(=O)NCCO)co3)n1)c1nnc(-c3c(F)cccc3F)cc12` [Example 326, 2-(6-((5R,8S)-3-(2,6-difluorophenyl)-9,9-dimethyl-5,6,7,8-tetrahydro-5,8-methanocinnolin-8-yl)pyrazin-2-yl)-N-(2-hydroxyethyl)oxazole-4-carboxamide], for which the IC50 was determined as 10.1 nM.

On to `CC1(C)[C@H]2CC[C@]1(c1ccnc(N3CCOCC3)n1)c1nnc(-c3c(F)cccc3F)cc12` [Example 328], for which the IC50 worked out at 2.2 nM.

`CC1(C)[C@H]2CC[C@]1(c1ccnc(N3CCCC3)n1)c1nnc(-c3c(F)cccc3F)cc12` [Example 329]: the IC50 stood at 2.8 nM. The IC50 values of the last two molecules are within 1.5-fold of each other.

Molecule `CC1(C)[C@H]2CC[C@]1(c1ccnc(N3CC[C@H](O)C3)n1)c1nnc(-c3c(F)cccc3F)cc12` [Example 330] yielded an IC50 of 4.6 nM. Against the preceding molecule, the IC50 is about 1.6-fold higher.
